Data on five compounds can be found in BindingDB's records for doi:10.1021/jm00352a017 (1983).

A short description of experiment [1]: Michaelis-Menten constant for inhibition of rat kidney pyruvate kinase (PK-K).
The nature of experiment [2]: Inhibition of rat kidney pyruvate kinase (PK-K) at 6.7 mM.
A short description of experiment [3]: Inhibition of rat kidney pyruvate kinase (PK-K).
Experiment [4] can be described thus: Inhibition of rat liver pyruvate kinase (PK-L) at 3.6 mM.

Molecules are shown by their SMILES. pKi: −log10 of the molar value.

On to `C[C@@H](OP(=O)(O)OP(=O)(O)O)[C@H]1OC(n2cnc3c(N)ncnc32)[C@H](O)[C@@H]1O` (stereo partly specified), for which the pKi in experiment [1] is 2.10; in experiment [2] it was 1.96.
Turning to `CCNc1nc2c(N)ncnc2n1C1O[C@H](COP(=O)(O)OP(=O)(O)O)[C@@H](O)[C@H]1O` (stereo partly specified), the pKi in experiment [3] is 2.54.
Same read-out and setting: with `CSc1nc2c(N)ncnc2n1C1O[C@H](COP(=O)(O)OP(=O)(O)O)[C@@H](O)[C@H]1O` (stereo partly specified) the figure was 2.30; with `CCSc1nc2c(N)ncnc2n1C1O[C@H](COP(=O)(O)OP(=O)(O)O)[C@@H](O)[C@H]1O` (stereo partly specified), 2.41.
`CO[C@H]1[C@@H](O)[C@H](n2cnc3c(N)ncnc32)O[C@@H]1COP(=O)(O)OP(=O)(O)O` [[5-(6-amino-9H-purin-9-yl)-4-hydroxy-3-methoxytetrahydrofuran-2-yl]methyl trihydrogen diphosphate] gave a pKi in experiment [4] of 2.15.
